Patent US11958842B2, “Substituted phenazines and methods of treating cancer and bacterial diseases” (Adjutec Pharma AS, priority 2016, dated 2024)
Converted amounts (≈) assume the structure as drawn. Like-named read-outs stand apart in the source and are kept apart here.

Experiments:
[1] = tested on: human acute myeloid leukemia cell line MOLM-13; experiment: Cytotoxicity, WST-1 and nuclear morphology (Example 73); assay type: cell-based
Experimental: (§1) All cell culturing media and serum were from Sigma-Aldrich (St. Louis, Mo., USA). Product Nos. are given in parentheses. The human acute myeloid leukemia cell line MOLM-13 was cultured in RPMI medium (R5886) enriched with […] (F7524) and 0.2 mM L-glutamine (G7513). The normal rat kidney epithelial (NRK) and the rat cardiomyoblast (H9c2) cells were cultured in DMEM medium (D6429) enriched with 10% fetal bovine serum (F7524). All cell lines were additionally supplemented with 100 IU/mL penicillin and […] (P0781). The cells were cultured in a humidified atmosphere either under 2% or 20% O2 at 37° C.
(§2) All analogues were dissolved in DMSO (D5879, Sigma-Aldrich) at concentrations between 2.5 and 20 mM before testing. For cytotoxic testing, the MOLM-13 cells were seeded as 20,000 cells/well, while NRK and H9c2 cells were seeded as 5,000 cells/well in 96-well Microplates (#167008, Thermo Scientific™ Nunc™ MicroWell™) with 100 μL medium/well. The cells were exposed to various concentrations of iodinin or its analogues for 24 hrs before the cell proliferation reagent WST-1 was used to assess the viability, in accordance with the manufacturer's instructions (11644807001, Roche Diagnostics, Sigma-Aldrich). The cells were next fixed in 2% buffered formaldehyde (pH 7.4) with the DNA-specific dye Hoechst 33342 (Polysciences Inc.) and assessed for cell death by UV-microscopy based on nuclear morphology. The highest concentration of analogue corresponded to 1% of DMSO, which alone gave less than 7% cell death as judged by nuclear morphology.
(§3) EC50 values were determined by analyses of WST-1 signal results as well as microscopic evaluation of cell death by four-parameter regression analyses using the SigmaPlot software (Systat Software inc. San Jose, Calif.):
(§4) [formula] where Y is the response (WST-1 signal or percent apoptosis), min and max are minimum and maximum response, X is concentration of analogue, EC50 equals the point of inflection, i.e. the point that gives half of maximum response, and h is the Hill's slope of the curve. The two methods gave consistent response curves for each analogue. In the case of Tirapazamine, where its colour interfered with the WST-1 signal, only microscopic evaluation of Hoechst stained cells was used in order to calculate its EC50 values.

[2] = tested on: normal rat kidney epithelial (NRK) cells; experiment: as above; assay type: cell-based
Experimental: as §1, §2, §3, §4

[3] = tested on: rat cardiomyoblast (H9c2) cells; experiment: as above; assay type: cell-based; conditions: read-out: EC50 (μM) H9c2 19% O2
Experimental: as §1, §2, §3, §4

[4] = tested on: methicillin-resistant S. aureus MRSA A4-37; experiment: Microbroth dilution MIC; assay type: cell-based; conditions: compound alone
Experimental: (§5) Day 1: • Plate bacterial strain(s) on appropriate media: • Gram-negative bacteria with ESBLs or carbapenemases: green agar plates with 100 mg/L ampicillin • Gram-negative bacteria without β-lactamases: green agar plates • Gram-positive bacteria (Staphylococci and Enterococci): blood agar plates • Incubate o.n. at 37° C.
(§6) Prepare the Bacterial Inoculum: • Prepare a 0.5 McFarland suspension of bacteria in 0.85% NaCl. (Should be used within 15 min of preparation). • Dilute the 0.5 McFarland suspension 1:100 into MH broth.
(§7) Check the inoculum by diluting the prepared bacterial suspension 1:100 (10 μl bacterial suspension+990 μl 0.85% NaCl). Plate 10 μl of the dilution on MH agar plates (×2). Incubate o.n. at 37° C., count the colonies and calculate the final CFU/ml inoculum in the plate by multiplying the average number of colonies with 10000 and divide by 2. The final inoculum should be between 3-7×10^5 CFU/ml. • Add 50 μl of the prepared bacterial suspension to each well in the microtiter plate except negative growth control.
(§8) Preparation of Compounds/Antibiotics • Calculate the desired concentration-range and volume of the compounds/antibiotics in the assay. For antibiotics this will depend on the MIC to meropenem of the bacterial strains to be tested. Dilute the stock solution in MH broth. Make subsequent 2-fold dilutions in MH broth of the desired concentrations if a concentration range is to be tested (remember the extra dilution factor in the assay plate). Always include extra volume for pipetting. Take into consideration stock solutions that are made in buffers that have an effect on bacterial growth (e.g. DMSO).
(§9) This experimental design was used for the results in Tables 4 and 5 below. In Table 4, inhibitor concentration dependency on the MIC of meropenem was studied.

[5] = tested on: vancomycin-resistant E. faecium vanA A1-22; experiment: Microbroth dilution MIC; assay type: cell-based; conditions: compound alone
Experimental: as §5, §6, §7, §8, §9

[6] = tested on: hepG2; experiment: Cytotoxicity (Example 73, Table 2); assay type: cell-based; conditions: Homo sapiens, read-out: EC50 (μM) hepG2
[7] = Parallel artificial membrane permeability assay (PAMPA); conditions: for Permeability: PAMPA class by ranges of Bennion et al.; for LogPeff: PAMPA, 50 μM in PBS, room temperature, five hours
Experimental: The Corning Gentest™ pre-Coated parallel artificial membrane permeability assay PAMPA Plate System was from Cording Discovery Labware (Bedford, USA). The compounds were tested in room temperature at 50 μM using PBS as buffer. A total of 300 μl of the compound solution was added to each well of the donor plate, and 200 μl of PBS was added to the receiver filter plate. After incubation for five hours, 50 μl of the donor or acceptor well were injected into a reversed phase HPLC column (Kromasil 100-5 C18 150-4.6 mm, Akzo Nobel, Sweden) connected to a Merck-Hitachi LaChrome HPLC-system (VWR, WestChester, USA) with a L-7455 diode array detector. Mobile phase A was 0.05% aqueous TFA, and mobile phase B was acetonitrile. The flow rate was 1.6 ml/min and compounds eluted between 1 and 4.5 minutes was eluted during a 6.5 min gradient from 90:10% mobile phase A:B to 0:100% mobile phase A:B. The ratio of the compound concentrations in the donor and acceptor compartment was calculated after integration of the peaks at 285 nm. Peff was calculated as described in [Bennion B J, Be N A, McNerney M W, Lao V, Carlson E M, Valdez C A, et al. Predicting a Drug's Membrane Permeability: A Computational Model Validated With in Vitro Permeability Assay Data. The journal of physical chemistry B. 2017; 121(20):5228-37.]. Membrane permeability were classified by the range defined by Bennion et al., allowing for us to divide the compounds into four groups, compounds with high permeability (LogPeff>−5.33), intermediate permeability (LogPeff>−5.66 and <−5.33), low permeability (LogPeff>−6.14 and <−5.66) impermeable (LogPeff<−6.14).

[8] = tested on: Molm13 cells; experiment: Anti-AML activity, WST-1 viability (Example 72); assay type: cell-based; conditions: Homo sapiens, MOLM-13, 24 h
Experimental: Dry powder of analogs were dissolved in DMSO. IPC-18 rat AML cells (Lacaze, N. et al. Leuk. Res. 1983, 7, 145.) were cultured in DMEM medium (Sigma-Aldrich, St. Louis, Mo., USA) supplemented with 10% horse serum (Invitrogen, Carlsbad, Calif., USA), and antibiotics (50 U/mL of penicillin and 0.05 mg/mL streptomycin). Molm13 (Matsuo, Y. et al. Leukemia 1997, 11, 1469.) cells were cultured in RPMI supplemented with antibiotics (50 U/mL of penicillin and 0.05 mg/mL streptomycin) and 10% fetal bovine serum (FBS, Invitrogen, Carlsbad, Calif.) and kept in exponential growth before the experiments. Dilution series of iodinin analogs were added to medium and cell suspension added to reach a final cell concentration of 150 000 cells/ml in 0.1 mL in a 96 well tissue culture plate. […] The cells were incubated with the iodinin analogs for 22 h before WST-1 was added according to the manufacturers protocol, and the cells incubated further in 2 h. Mitochondrial conversion of WST-1 to its colored metabolite was measured by a plate reader at 450 nm, with 620 nm as the reference wavelength. The cells were next fixed by adding 4% buffered formaldehyde (PBS, pH 7.4, supplemented with 0.01 mg/mL Hoechst 33342 for nuclear visualization) to the cell suspension at 1:1 (v/v) ratio (final concentration of formaldehyde:[…]). The cells' nuclear and surface morphology were examined microscopically and results compared with the WST-1 viability assay. The results given in Table I are based on WST-1 data.

[9] = MOLM-13, 2% O2, 24 hours of incubation, read-out: EC50 (μM) MOLM-13 2% O2
[10] = MOLM-13, 19% O2, 24 hours of incubation, read-out: EC50 (μM) MOLM-13 19% O2
[11] = Rattus norvegicus, 24 h, read-out: EC50 (μM) NRK 2% O2, NRK, 2% O2, 24 hours of incubation
[12] = Rattus norvegicus, 24 h, read-out: EC50 (μM) NRK 19% O2, NRK, 19% O2, 24 hours of incubation
[13] = H9c2, 19% O2, 24 hours of incubation
[14] = read-out: EC50 (μM) NRK 2% O2, 2% O2, 24 hours of incubation
[15] = read-out: EC50 (μM) NRK 19% O2, 19% O2, 24 hours of incubation

Row | SMILES | EC50 [1, 9] [µM] | EC50 [1, 10] [µM] | EC50 [2, 11] [µM] | EC50 [2, 12] [µM] | EC50 [3, 13] [µM] | MIC A4-37 S. aureus MRSA [4] [µg/mL] | MIC A1-22 E. faecium vanA [5] [µg/mL] | EC50 ([6]; HepG2, 24 h) [µM] | LogPeff [7] | further results
1 | COc1cccc2c1[n+]([O-])c1cccc(OC(=O)N(C)C)c1[n+]2[O-] [Example 8m, 1-((dimethylcarbamoyl)oxy)-6-methoxyphenazine 5,10-dioxide] | 1.7 ± 0.09 | 1.9 ± 0.07 | 29 ± 0.7 | 22 ± 1.7 | 35 ± 1.8 | < 4 | 63 (≈ 191 µM) | – | – | –
2 | CN1CCN(C(=O)Oc2cccc3c2[n+]([O-])c2cc4ccccc4cc2[n+]3[O-])CC1 [Example 8e, 1-((4-methylpiperazine-1-carbonyl)oxy)benzo[b]phenazine 5,12-dioxide] | – | – | – | – | – | – | – | 45 | −5.38 | EC50 ([1]; Homo sapiens, MOLM-13, 24 h, read-out: EC50 (μM) MOLM-13 2% O2): 0.32 ± 0.06 µM; EC50 ([1]; Homo sapiens, MOLM-13, 24 h, read-out: EC50 (μM) MOLM-13 19% O2): 0.34 ± 0.04 µM; EC50 [2, 14]: 15 ± 1.8 µM; EC50 [2, 15]: 10 ± 0.9 µM; EC50 ([3]; Rattus norvegicus, H9c2, 24 h): 3.2 ± 0.1 µM; Permeability [7]: Intermediate/high
3 | COc1cccc2c1[n+]([O-])c1cccc(OC(=O)N3CCN(C)CC3)c1[n+]2[O-] [Example 8b, 1-methoxy-6-((4-methylpiperazine-1-carbonyl)oxy)phenazine 5,10-dioxide] | 0.98 ± 0.08 | 1 ± 0.06 | 39 ± 4.2 | 26 ± 2.1 | 26 ± 0.9 | – | – | 90 | −5.77 | –
4 | COc1cccc2c1[n+]([O-])c1ccccc1[n+]2[O-] [Example 18, 1-methoxyphenazine 5,10-dioxide] | – | – | – | – | – | < 2 | 32 (≈ 132 µM) | – | – | –
5 | CN1CCN(C(=O)Oc2cccc3c2[n+]([O-])c2cc(Br)c(Br)cc2[n+]3[O-])CC1 [Example 59, 7,8-dibromo-1-((4-methylpiperazine-1-carbonyl)oxy)phenazine 5,10-dioxide] | 0.23 ± 0.03 | 0.41 ± 0.04 | – | – | 2.2 ± 0.53 | – | – | 40 | – | EC50 [2, 14]: 7.6 ± 0.6 µM; EC50 [2, 15]: 6.2 ± 0.02 µM
6 | CCOC(=O)COc1cccc2c1[n+]([O-])c1cc(Cl)c(Cl)cc1[n+]2[O-] [Example 6c, 7,8-dichloro-1-(2-ethoxy-2-oxoethoxy)phenazine 5,10-dioxide] | – | – | – | – | – | – | – | – | −5.42 | EC50 ([1]; Homo sapiens, MOLM-13, 2% O2, 24 hours of incubation, read-out: EC50 (μM) MOLM-13 2% O2): 0.38 ± 0.04 µM; EC50 ([1]; Homo sapiens, MOLM-13, 19% O2, 24 hours of incubation, read-out: EC50 (μM) MOLM-13 19% O2): 0.41 ± 0.05 µM; EC50 ([2]; Rattus norvegicus, 2% O2, 24 hours of incubation, read-out: EC50 (μM) NRK 2% O2): 4.7 ± 0.09 µM; EC50 ([2]; Rattus norvegicus, 19% O2, 24 hours of incubation, read-out: EC50 (μM) NRK 19% O2): 3.1 ± 0.02 µM; EC50 ([3]; Rattus norvegicus, H9c2, 19% O2, 24 hours of incubation): 1.3 ± 0.2 µM; EC50 ([6]; hepG2, 24 hours of incubation): 12 µM; Permeability [7]: Intermediate/high
7 | CCN(CC)C(=O)Oc1cccc2c1[n+]([O-])c1cccc(O)c1[n+]2[O-] [Example 8i, 1-((diethylcarbamoyl)oxy)-6-hydroxyphenazine 5,10-dioxide] | – | – | – | – | – | < 4 | 8 (≈ 23.3 µM) | – | – | IC50 ([8]; read-out: Molm 13 IC50 2% O2): 0.74 µM; IC50 ([8]; read-out: Molm 13 IC50 20% O2): 0.76 µM
8 | CN1CCN(C(=O)Oc2cccc3c2[n+]([O-])c2cccc(O)c2[n+]3[O-])CC1 [Example 8a, 1-hydroxy-6-((4-methylpiperazine-1-carbonyl)oxy)phenazine 5,10-dioxide] | 1.4 ± 0.06 | 1.5 ± 0.16 | 59 ± 1.1 | 53 ± 2 | 100 ± 13 | – | – | 30 | – | –
9 | Cc1cc2c(cc1C)[n+]([O-])c1c(OC(=O)N3CCN(C)CC3)cccc1[n+]2[O-] [Example 8d, 7,8-dimethyl-1-((4-methylpiperazine-1-carbonyl)oxy)phenazine 5,10-dioxide] | 0.54 ± 0.06 | 0.63 ± 0.05 | 13 ± 0.7 | 11 ± 1.5 | 9.4 ± 0.55 | – | – | 105 | – | –
